Among the data in PubChem BioAssay (NCI) are TGI values, retold here.

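Dose response: 5 concentrations. Exposure: 48 h. Format: 96-well plates. Endpoint: linear interpolation; highest concentration if not reached. The concentration for full growth arrest is given as TGI.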 Bounds are passed on as bounds.

Some test systems named below: 786-0 renal; BT-549 breast; CCRF-CEM leukemia; DU-145 prostate; HCC-2998 colon; HS 578T breast; MCF7 breast; MDA-MB-231 breast; MDA-N; NCI-H226 lung; SF-295 CNS; SK-MEL-5 melanoma; SN12C renal; SNB-19 CNS; SW-620 colon.
Assay in all cases: inhibition of tumour cell growth, NCI panel, 48 h

As for `N=C(N)c1ccc(/C=C/c2ccc(C(=N)N)cc2)cc1`, the TGI with 786-0 renal, with BT-549 breast, with CCRF-CEM leukemia, in the assay with DU-145 prostate, in the assay with HCC-2998 colon and with HS 578T breast was more than 100 µM throughout. For the same compound, the TGI with MCF7 breast, in the assay with MDA-MB-231 breast, in the assay on MDA-N, in the assay on NCI-H226 lung, in the assay on SF-295 CNS and in the assay with SK-MEL-5 melanoma was more than 100 µM in each case. The TGI in the assay with SN12C renal, in the assay with SNB-19 CNS and with SW-620 colon was more than 100 µM throughout.
Take `CN(CC(=O)N1CC(CCl)c2ccc([N+](=O)[O-])cc21)CC(=O)N1CC(CCl)c2ccc([N+](=O)[O-])cc21` (centres undefined): the TGI with 786-0 renal, in the assay on BT-549 breast, with CCRF-CEM leukemia, in the assay with DU-145 prostate, in the assay on HCC-2998 colon and in the assay with HS 578T breast was more than 100 µM in each case. In addition, the TGI in the assay with MCF7 breast, in the assay with MDA-MB-231 breast, in the assay on MDA-N, in the assay with NCI-H226 lung, in the assay with SF-295 CNS and in the assay with SK-MEL-5 melanoma was more than 100 µM in each case. Also, the TGI in the assay with SN12C renal, in the assay with SNB-19 CNS and in the assay with SW-620 colon was more than 100 µM each time.
As to `Cc1nnc2n1N=C(c1ccccc1)/C(=C/c1ccc(-c3ccc(Cl)cc3)o1)S2`, the TGI in the assay on 786-0 renal was 27.2 µM; in the assay with BT-549 breast it was 32.2 µM; with CCRF-CEM leukemia, 16.4 µM; with DU-145 prostate, 38.9 µM; with HCC-2998 colon, 19.9 µM; with HS 578T breast, more than 100 µM. The TGI in the assay with MCF7 breast is more than 100 µM; in the assay with MDA-MB-231 breast, 33 µM; in the assay on MDA-N, 34 µM; in the assay on NCI-H226 lung it was 31.1 µM; with SF-295 CNS, 49.9 µM; in the assay on SK-MEL-5 melanoma, 27.2 µM. The TGI in the assay on SN12C renal is 35.7 µM; in the assay on SNB-19 CNS it was 35 µM; in the assay with SW-620 colon, 47.7 µM.
Take `O=C1OCN(c2ccccc2)C12CCN(Cc1ccccc1)CC2`: the TGI was 79.2 µM with 786-0 renal; more than 100 µM in the assay on BT-549 breast; 48.7 µM with CCRF-CEM leukemia; more than 100 µM in the assay with DU-145 prostate; 32.6 µM in the assay on HCC-2998 colon; 55.4 µM in the assay on HS 578T breast. The TGI is more than 100 µM with MCF7 breast; 66.6 µM in the assay with MDA-MB-231 breast; 62.3 µM in the assay with MDA-N; more than 100 µM in the assay with NCI-H226 lung; 31.1 µM in the assay with SF-295 CNS; 33.6 µM in the assay on SK-MEL-5 melanoma. Moreover, the TGI with SN12C renal is more than 100 µM; in the assay with SNB-19 CNS, more than 100 µM; in the assay on SW-620 colon it was 49.8 µM.
On to `O=c1c2cccnc2n2n1Cc1ccccc1C2`, for which the TGI in the assay with 786-0 renal, with BT-549 breast, with CCRF-CEM leukemia, in the assay on DU-145 prostate, with HCC-2998 colon and with HS 578T breast was more than 100 µM in each case. For the same compound, the TGI in the assay with MCF7 breast, in the assay on MDA-MB-231 breast, with MDA-N, with NCI-H226 lung, in the assay with SF-295 CNS and with SK-MEL-5 melanoma was more than 100 µM each time. Further, the TGI with SN12C renal and in the assay on SW-620 colon was more than 100 µM in each case.
Take `O=c1ccn([C@@H]2C[C@H]2CO)c(=O)[nH]1`: the TGI in the assay on 786-0 renal, with BT-549 breast, with CCRF-CEM leukemia, with DU-145 prostate, in the assay with HCC-2998 colon and with HS 578T breast was more than 100 µM throughout. Besides, the TGI in the assay on MCF7 breast, in the assay with MDA-MB-231 breast, in the assay with MDA-N, in the assay with NCI-H226 lung, in the assay on SK-MEL-5 melanoma and in the assay on SN12C renal was more than 100 µM in each case. Besides, the TGI with SNB-19 CNS and in the assay with SW-620 colon was more than 100 µM throughout.
Take `CC1=NN(c2nc(N)nc(/C(C#N)=C/c3ccccc3O)n2)C(C)(C)C1`: the TGI in the assay with 786-0 renal is 29.1 µM; with BT-549 breast, 67.7 µM; with CCRF-CEM leukemia, 35.5 µM; in the assay on DU-145 prostate, 32 µM; in the assay on HCC-2998 colon, 36.5 µM; in the assay on HS 578T breast, 35.4 µM. Further, the TGI came to 64.9 µM in the assay on MCF7 breast; 40.7 µM in the assay with MDA-MB-231 breast; 30.7 µM in the assay with MDA-N; 37.8 µM in the assay with NCI-H226 lung; 30.7 µM with SF-295 CNS; 28.8 µM with SK-MEL-5 melanoma. Besides, the TGI worked out at 71.9 µM in the assay with SN12C renal and 91.7 µM in the assay with SNB-19 CNS.
Take `COc1ccc(NC(=S)Nc2cc(C)cc(C)n2)cc1`: the TGI in the assay with 786-0 renal, with BT-549 breast, with CCRF-CEM leukemia, with DU-145 prostate, in the assay with HS 578T breast and in the assay with MCF7 breast was more than 100 µM each time. Further, the TGI in the assay on MDA-MB-231 breast, in the assay with MDA-N, in the assay with NCI-H226 lung, in the assay with SF-295 CNS, with SK-MEL-5 melanoma and in the assay on SN12C renal was more than 100 µM in each case. For the same compound, the TGI in the assay on SNB-19 CNS and with SW-620 colon was more than 100 µM in each case.
On to `CSC(=N/C=C/c1ccccc1)SC`, for which the TGI with 786-0 renal, in the assay with BT-549 breast, with CCRF-CEM leukemia, with DU-145 prostate, in the assay with HS 578T breast and in the assay on MCF7 breast was more than 100 µM each time. Further, the TGI in the assay with MDA-MB-231 breast, in the assay with MDA-N, in the assay on NCI-H226 lung, with SF-295 CNS, in the assay with SN12C renal and in the assay on SNB-19 CNS was more than 100 µM each time. In the assay on SW-620 colon, this compound returned a TGI of more than 100 µM.
